One experiment addresses DRB1*0401 (Homo sapiens, UniProt P01903+P01911, A100K/A169T/F76Y/I96L/K127E/L162R/M171V/N62H/P40V/Q125Y/R42H/S133A/S149N/S66Y/V115G/V209L/W38E). Nature of the experiment: biochemical.
A further experiment deals with DRB1*0701 (Homo sapiens, UniProt P01903+P01911, A100R/A102G/A103Q/D57E/D86V/E43K/F76Y/K127E/L162R/M171V/P40G/Q125H/Q99D/R33Q/R42Y/R54Q/S133A/S66F/T210M/V115G/Y107V/Y59L/Y89S). The experiment is described as follows: biochemical.
Experiment [1] has as its system target cells pulsed with wild-type peptide. Nature of the experiment: CTL recognition of targets pulsed with the wildtype peptide (51Cr release). Format: cell-based, human. Particulars: Number of donors yielding a positive response/total tested; Table XXVIIb.
The next experiment concerns the target A*0202 (Homo sapiens, UniProt P04439, D140Y/D185E/D98H/E176V/E277Q/G131W/G231S/I119L/I121R/I166T/I218V/L180W/L300P/L318F/N151K/N90K/P208A/P217A/Q67R/Q86G/Q94H/R138H/R169H/T345S). The experiment is described as follows: biochemical.
Another experiment has as its target A*0203 (Homo sapiens, UniProt P04439, A173T/D140Y/D185E/D98H/E277Q/G131W/G231S/I119V/I121R/I166T/I218V/L180W/L300P/L318F/N151K/N90K/P208A/P217A/Q86G/Q94H/R138H/R169H/T345S). Nature of the experiment: biochemical.
The target of another experiment is A*0206 (Homo sapiens, UniProt P04439, D140Y/D185E/D98H/E176V/E277Q/F33Y/G131W/G231S/I119V/I121R/I166T/I218V/L300P/L318F/N151K/N90K/P208A/P217A/Q86G/Q94H/R138H/R169H/T345S). The experiment is described as follows: biochemical.
The test system of experiment [2] is 0.221A2.1 cell line, peptide-loaded target. Nature of the experiment: Primary in vitro CTL induction, 51Cr release against targets pulsed with the induction peptide. Particulars: Number of donors yielding a positive response/total tested; Table XXVIIb.

Non-standard residues stand in square brackets, D forms with d. Residues, ends and D or L forms follow the SMILES beside them. Abu = CC[C@H](N)C(=O)O

Consider `CC(C)C[C@H](NC(=O)[C@H](C)NC(=O)[C@H](CCCNC(=N)N)NC(=O)[C@@H](N)CCCCN)C(=O)N1CCC[C@H]1C(=O)N[C@@H](CC(N)=O)C(=O)N[C@@H](CC(N)=O)C(=O)N[C@H](C(=O)N[C@@H](CO)C(=O)N[C@@H](CO)C(=O)N[C@@H](CO)C(=O)N1CCC[C@H]1C(=O)N[C@@H](CCC(N)=O)C(=O)N1CCC[C@H]1C(=O)N[C@@H](CCCCN)C(=O)O)[C@@H](C)O` [p53.305], for which the 50% inhibitory concentration (IC50) at DRB1*0401 and against DRB1*0701 was more than 10 µM in each case.

For `CC[C@H](C)[C@H](NC(=O)[C@@H](NC(=O)[C@H](CC(C)C)NC(=O)[C@@H](NC(=O)[C@@H]1CCCN1C(=O)[C@H](CCCNC(=N)N)NC(=O)[C@H](CCCNC(=N)N)NC(=O)[C@H](CC(N)=O)NC(=O)[C@H](CCSC)NC(=O)CNC(=O)CNC(=O)[C@@H](N)CCSC)[C@@H](C)CC)[C@@H](C)O)C(=O)N[C@H](C(=O)N[C@H](C(=O)N[C@@H](CC(C)C)C(=O)O)[C@@H](C)O)[C@@H](C)CC` [p53.243], the IC50 at DRB1*0401 and against DRB1*0701 was more than 10 µM each time.

With `CC[C@H](NC(=O)[C@H](Cc1ccccc1)NC(=O)[C@H](CCSC)NC(=O)[C@@H](N)CCCCN)C(=O)N[C@@H](CCC(N)=O)C(=O)N[C@@H](CC(C)C)C(=O)N[C@@H](C)C(=O)N[C@@H](CCCCN)C(=O)N[C@H](C(=O)O)C(C)C` [p53.132B4V9] (H-KMF[Abu]QLAKV-OH), the “CTL Wild-type” value in experiment [1] is recorded as 0/4. Moreover, the results for the half-maximal inhibitory concentration (IC50) on A*0202, on A*0203 and at A*0206 were 0.013 µM, 0.0091 µM and 0.037 µM, respectively. Also, in experiment [2], the “CTL Peptide” value is 5/5.

Consider `CC[C@H](NC(=O)[C@H](Cc1ccccc1)NC(=O)[C@H](CCSC)NC(=O)[C@H](CCCCN)NC(=O)[C@H](CC(N)=O)NC(=O)[C@H](CC(C)C)NC(=O)[C@H](C)N)C(=O)N[C@@H](CCC(N)=O)C(=O)N[C@H](C(=O)O)C(C)C` [p53.129B7V9] (H-ALNKMF[Abu]QV-OH), for which the “CTL Wild-type” value in experiment [1] is reported as 0/3. The “CTL Peptide” value in experiment [2] is on record as 2/4.

Turning to `CC[C@H](C)[C@H](NC(=O)[C@H](CCC(N)=O)NC(=O)[C@H](CC(C)C)NC(=O)[C@@H](NC(=O)[C@H](Cc1ccccc1)NC(=O)[C@H](Cc1ccc(O)cc1)NC(=O)[C@H](CCC(=O)O)NC(=O)CNC(=O)[C@@H](N)CC(=O)O)[C@@H](C)O)C(=O)N[C@@H](CCCNC(=N)N)C(=O)NCC(=O)N[C@@H](CCCNC(=N)N)C(=O)N[C@@H](CCC(=O)O)C(=O)N[C@@H](CCCNC(=N)N)C(=O)N[C@@H](Cc1ccccc1)C(=O)O` [p53.324], the concentration for half-maximal inhibition (IC50) against DRB1*0401 and against DRB1*0701 was more than 10 µM each time.
